The values that follow come from US20250129113A1, “NEW GLYCOSIDE COMPOUND AND PREPARATION PROCESS THEREOF” (SunIn Biotech Co., Ltd., priority 2023, published 2025).

Test [1] has as its system TNF-α gene expression in THP1 cells differentiated into M1-type macrophages. Description: Real-time PCR inflammatory gene expression assay, TNF-α. The test is classed as cell-based, human. The conditions noted are these: 16 μM; THP1 differentiation into M1-type macrophages (LPS, IFN-γ); 25 mM glucose. Here is the method:
(§1) Human acute monocytic leukemia, THP1 cells were cultured in Roswell Park Memorial Institute (RPMI) 1640 medium added with 10% fetal calf serum, and then the cells were put in a humidified incubator at 37° C., and with an air of 5% carbon dioxide and 95% oxygen.
(§2) THP1 cells were treated with 100 ng/ml of phorbol 12-myristate 13-acetate (PMA) for 24 hours to induce activation. The following day, the medium was replaced with RPMI 1640 (25 mM Glucose, 10% FBS) and incubated for another 24 hours. The cells were then differentiated into M1 phase macrophages by switching to RPMI 1640 medium containing LPS (10 pg/ml) and IFN-γ (20 ng/ml), and into M2 phase macrophages using RPMI 1640 medium containing IL-4 (20 ng/ml) and IL-13 (20 ng/ml). During the 48-hour differentiation process, the test drug Nusynside (16 μM) was added. After 24 hours of differentiation, mRNA from M1 and M2 phase macrophages was extracted using the PROTECH Kit, and reverse transcription of mRNA into cDNA was performed with the Protech MMLV Reverse Transcription Kit. Gene expression was subsequently observed. According to the POWERTRACK SYBR dye protocol, the cDNA was mixed, and gene expression was analyzed using the StepOnePlus Real-Time PCR Systems to examine inflammatory gene expression when THP1 cells were differentiated into M1 and M2 phase macrophages in the presence of Nusynside (16 μM).
(In general: Quantitative PCR measures a nucleic acid by following its amplification.)

Test [2] relates to IL-6 gene expression in THP1 cells differentiated into M1-type macrophages. The test is described as follows: Real-time PCR inflammatory gene expression assay, IL-6. The test is classed as cell-based, human. The conditions noted are these: 16 μM; THP1 differentiation into M1-type macrophages (LPS, IFN-γ); 25 mM glucose. Here is the method:
as §1, §2

Test [3] relates to full-skin wound in BKS.Cg-Dock7m+/+ Leprdb/Jnarl male mice. Description: Diabetic mice wound healing study. The test is classed as in vivo. The conditions noted are these: Nusynside 0.23 mg, Day 17 after continuous administration, compared to Blank group. Here is the method:
BKS.Cg-Dock7m+/+ Leprdb/Jnarl male mice, an established diabetes model, were obtained from the National Applied Research Laboratories, Taiwan. The experiment was conducted when the mice were 6 to 7 weeks old. A full-skin wound of the same size with a diameter of about 6 mm was made on the left and right sides of each mouse's back.
Total 14 mice were randomly divided into 4 groups based on body weight: (i) Nusynside test group (administrated with Nusynside 0.23 mg) (n=4); (ii) Positive Control group (administrated with cream containing Centella Asiatica and Plectranthus amboinicus extract) (n=4); (iii) Vehicle Control group (administrated with ointment base) (n=3); (vi) Blank group (n=3). The animals underwent bilateral incisions and were housed individually in separate cages after the incisions, in the IVC housing system of the general SPF breeding area. Daily external cage observations were conducted by the animal caretakers. On the day of the incision and during follow-up photography, the body weight of the animals, wound appearance, and wound area were measured and recorded, except that the wound had healed resulting in it disable to be measured, the measurements were taken twice a week.

For another test, the system named is Hs68 cells. The test is described as follows: Cell proliferation assay (CCK-8), Hs68 cells. The test is classed as cell-based, human. To be noted: 25 mM glucose, 24 hours, vs control group. Here is the method: (§3) Human Foreskin Fibroblast, Hs68 cells and human keratinocytes, HaCaT cells were cultured in Dulbecco's Modified Eagle Medium (DMEM) added with glucose and 10% fetal calf serum, and then the cells were put in a humidified incubator with an air of 5% carbon dioxide and 95% oxygen. The medium was changed every two days. The subculture was performed, and then treated with 0.25% trypsin (TRYPSIN-EDTA) mixture. Finally, the cells were collected and diluted at a ratio of 1:5 for re-culture. The cells used in the efficacy test had passage numbers ranging from 12 to 40.
The Hs68 cells were cultured in DMEM culture medium for 24 hours. The cell growth and survival status were analyzed with the CCK-8 reagent kit (DOJINDO MOLECULAR TECHNOLOGIES, KUMAMOTO, JAPAN). 10 μL CCK-8 solution to each cell culture was added and the cell culture was incubated at 37° C. for one hour, and then the cells were measured by the spectrophotometer MICROPLATE READER (THERMO LABSYSTEMS MULTISKAN RC) at 450 nm absorption, and the experimental results were analyzed by a comparison with the control group.

For another test, the system named is HaCaT cells. The test is described as follows: Cell proliferation assay (CCK-8), HaCaT cells. The test is classed as cell-based, human. The conditions noted are these: 25 mM glucose, 48 hours, vs control group. Here is the method:
as §3
HaCaT cells at the number of 5×10^3 were cultured Culture in DMEM culture medium for 48 hours. The cell growth and survival status were analyzed with the CCK-8 reagent kit (DOJINDO MOLECULAR TECHNOLOGIES, KUMAMOTO, JAPAN). 10 μL CCK-8 solution was added to each cell culture and the cells were incubated at 37° C. for one hour, and then the cells were measured by the spectrophotometer MICROPLATE READER (THERMO LABSYSTEMS MULTISKAN RC) at 450 nm absorption, and the experimental results were analyzed by a comparison with the control group.

With `CC1OC(OC2C(O)C(OCCc3ccc(O)c(O)c3)OC(CO)C2OC(=O)CCc2ccc(O)c(O)c2)C(O)C(O)C1O` (centres unmarked) [Nusynside], the “expression of TNF-α gene” value in test [1] was “significantly downregulated”. In test [2], the “expression of IL-6 gene” value was “significantly downregulated”. Further, the wound healing rate result in test [3] was “significantly increased the wound healing rate”. Also, the “promotion of cell proliferation of Hs68 cells” value with Hs68 cells (16 μM) worked out at 9%; in the test with Hs68 cells (32 μM) it was 12%. Also, the “promotion of cell proliferation of HaCaT cells” value with HaCaT cells (3.2 μM) is listed as 12%; in the test with HaCaT cells (16 μM), 17%; with HaCaT cells (32 μM), 14%.
